Results as given in US20110104713A1, “PRODUCTS AND PROCESSES FOR MODULATING PEPTIDE-PEPTIDE BINDING DOMAIN INTERACTIONS” (priority 2002, published 2011).
pKd: −log10 of the molar value. Non-standard residues stand in square brackets, D forms with d. Residues, ends and D or L forms follow the SMILES beside them. No end group written: not given here. pT = C[C@@H](OP(=O)(O)O)[C@H](N)C(=O)O; pS = N[C@@H](COP(=O)(O)O)C(=O)O

Assays:
Assay type in all cases: binding
[1] = molecular target: T1, GST-PTIP BRCT domains (residues 550-757) (Homo sapiens, UniProt Q6ZW49); assay: Isothermal titration calorimetry of peptides with PTIP tandem BRCT domains; conditions: for pKd: ITC, PTIP (BRCT)2 domain
T1 construct: 15 μM GST-PTIP BRCT domains (residues 550-757); made in house; host or cells: E. coli DH5a
From the text: (§1) For deletion mapping of the PTIP and BRCA1 BRCT phospho-binding region and for expression of MDC 1, 53BP1 and Rad9 (FIG. 17-18), fragments were generated by PCR for in vitro transcription/translation and cloned into a pcDNA3.1 expression vector (Invitrogen, San Diego, Calif.). For production of recombinant GST-PTIP BRCT domains and GSTBRCA1 BRCT domains, residues 550-757 of PTIP and residues 1634-1863 of BRCA1 were ligated into the EcoRI and NotI sites of pGEX-4T1 (Pharmacia, Peapack, N.J.) and subsequently transformed into DH5a E. Coli. Protein induction occurred at 37° C. for 4 hours or at 25° C. for 16 hours in the presence of 0.4 mM IPTG. For peptide filter blot analysis and measurements of peptide binding affinity by ITC, GSTPTIP BRCT domains (residues 550-757) and GST-BRCA1 BRCT domains (residues 1634-1863) were isolated from bacterial lysates using glutathione agarose, eluted with 40 mM glutathione, and dialyzed into 50 mM Tris/HCl (pH 8.1), 300 mM NaCl. The GFP-PTIP constructs FL (residues 1-757), !BRCT (residues 1-550), or (BRCT)2 (residues 550-757) were cloned into the EcoRI and SalI sites of the pEGFP-C2 (BD Biosciences Clontech Franklin Lakes, N.J.) expression vector.
(§2) Peptides were synthesized by solid phase technique with three C-terminal lysines to enhance solubility. The peptides were then purified by reverse phase HPLC following deprotection and confirmed by MALDI-TOF mass spectrometry. Calorimetry measurements were performed using a VP-ITC microcalorimeter (MicroCal Inc., Studio City, Calif.). Experiments involved serial 10 μL injections of peptide solutions (20 μM-150 μM) into a sample cell containing 15 μM GST-PTIP BRCT domains (residues 550-757) or 15 μM GST-BRCA1 BRCT domains (residues 1634-1863) in 50 mM Tris/HCl (pH 8.1), 300 mM NaCl. Twenty injections were performed with 240 second intervals between injections and a reference power of 25 μCal/s. Binding isotherms were plotted and analyzed using ORIGIN Software (MicroCal Inc. Studio City, Calif.).

[2] = molecular target: T2, GST-BRCA1 BRCT domains (residues 1634-1863) (Homo sapiens, UniProt P38398); assay: Isothermal titration calorimetry of peptides with BRCA1 tandem BRCT domains
T2 construct: 15 μM GST-BRCA1 BRCT domains (residues 1634-1863); made in house; host or cells: E. coli DH5a
From the text: as §1, §2

[3] = molecular target: T3, Plk-1 PBD (residues 326-603) (Homo sapiens, UniProt P53350); assay: Isothermal titration calorimetry of peptides with Plk-1 PBD; conditions: for peptide binding to Plk-1 PBD by ITC (in words): no detectable binding for a Plk1 PBD concentration of at least 150 μM
T3 construct: sample cell containing 15 μM Plk-1 PBD (residues 326-603); GST (N, cleaved yes); made in house; host or cells: E. coli BL21
Procedure: For deletion mapping of the PBD, C-terminal fragments of Plk-1 were generated by PCR and cloned into the EcoRI and XhoI sites of pcDNA3.1 (Invitrogen). For production of recombinant PBD as a GST fusion in bacteria, the 326-603 fragment of Plk-1 was ligated into the EcoRI and XhoI sites of pGEX-4T (Pharmacia), transformed into BL21, and induced in late log-phase cells at 37° C. for 3.5 hours in the presence of 0.4 mM IPTG. For measurements of peptide binding affinity by ITC, GST-Plk-1 (326-603) was isolated from bacterial lysates using glutathione agarose, cleaved from GST using thrombin (10 U/mL), and purified by anion exchange chromatography (Q Sepharose HP, Pharmacia).
Peptides were synthesized by solid phase technique with two C-terminal lysines to enhance solubility, purified by reverse phase HPLC following deprotection, and confirmed by MALDI-TOF 9 Matrix-assisted laser desorption/ionisation-time of flight mass spectrometry. Some peptides contained an additional tyrosine residue to facilitate concentration determination by optical absorbance. calorimetry measurements were performed using a VP-ITC microcalorimeter (MicroCal Inc., Studio City, Calif.). Experiments involved 10 μL injections of peptide solutions (150 μM-180 μM) into a sample cell containing 15 μM Plk-1 PBD (residues 326-603) in 50 mM Tris/HCl (pH 8.1), 200 mM NaCl, 2 mM TCEP. Thirty injections were performed with a spacing of 240 s and a reference power of 25 μCal/s. Binding isotherms were plotted and analyzed using Origin Software (MicroCal Inc. Studio City, Calif.).
Peptides were synthesized by solid phase technique with two C-terminal lysines to enhance solubility. Some peptides contained an additional tyrosine residue to facilitate concentration determination by optical absorbance. Isothermal titration calorimetry was performed using a VP-ITC microcalorimeter (MicroCal Inc. Studio City, Calif.) by titration of 15-40 μM solutions of PBD proteins with 30×10 μl injections of […] peptide in a starting volume of 1.4-2.0 ml. Binding isotherms were plotted and analyzed using Origin Software (MicroCal Inc. Studio City, Calif.). Binding of in vitro translated Plk1 PBD (wild type and mutants) to bead-immobilized pTP and TP peptide libraries was performed as described previously (Elia et al., Science 299:1228-1231, 2003). pTP and TP indicate the peptide libraries biotin-Z-Gly-Z-Gly-Gly-Ala-X-X-B-X-pThr-Pro-X-X-X-X-Ala-Lys-Lys-Lys SEQ ID NO: 30 biotin-Z-Gly-Z-Gly-Gly-Ala-X-X-B-X-Thr-Pro-X-X-X-X-Ala-Lys-Lys-Lys SEQ ID NO: 31, respectively, where pThr is phosphothreonine, Z is aminohexanoic acid, X denotes all amino acids except Cys, and B is a biased mixture of the amino acids P, L, I, V, F, M, W.

[4] = molecular target: T4, GST-Plk-1 PBD (residues 326-603) interaction with mitotic phosphoproteins (Homo sapiens, UniProt P53350); assay: Peptide competition of GST-Plk-1 PBD pull-down of MPM-2 mitotic phosphoproteins from HeLa lysates; conditions: 320 μM peptide, 45 minutes at 4° C.; nocodazole-arrested HeLa lysates; listed as 7V
T4 construct: GST-Plk-1 (residues 326-603) was immobilized on glutathionine beads; made in house; host or cells: E. coli BL21
Procedure: HeLa cells were arrested in interphase or G2/M by treatment with aphidicolin (5 μg/mL) or nocodazole (50 ng/mL), respectively, for 16 hours. Cells were lysed in 25 mM Tris/HCl (pH 7.5) containing 125 mM NaCl, 0.5% NP-40, 5 mM EDTA, 2 mM DTT, 4 μg/mL pepstatin, 4 μg/mL aprotinin, 4 μg/mL leupeptin, 1 mM Na3VO4, 50 mM NaF, and […] microcystin, and 150 μgs of lysate incubated with 10 μL of glutathione agarose beads containing 2-5 μg of GST-Plk-1 (residues 326-603), GST-Pin1, or GST for 30 minutes at 4° C. Beads were washed four times with lysis buffer. Precipitated proteins were eluted in sample buffer and detected by blotting with monoclonal MPM-2 (Upstate Biotechnology, Inc.) or polyclonal anti-Cdc25C (Santa Cruz Biotechnology, Santa Cruz, Calif.). For peptide competition experiments, GST-Plk-1 (residues 326-603) was immobilized on glutathionine beads and preincubated with 320 μM of PoloBoxtide-optimal, −8T, or −7V for 45 minutes at 4° C. For binding experiments involving mutant cdc25C, HeLa cells were transfected with wild-type and mutated versions of HA-tagged Cdc25C in pECE using Superfect (Qiagen, Valencia, Calif.). Nocodazole (50 ng/mL) was added seventeen hours after transfection and cells incubated for an additional 14 hours to arrest them in G2/M. Point mutations of Cdc25C were constructed using the QuickChange site-directed mutagenesis system (Stratagene) and verified by DNA sequencing.

T1 sequence (Q6ZW49 862-1069): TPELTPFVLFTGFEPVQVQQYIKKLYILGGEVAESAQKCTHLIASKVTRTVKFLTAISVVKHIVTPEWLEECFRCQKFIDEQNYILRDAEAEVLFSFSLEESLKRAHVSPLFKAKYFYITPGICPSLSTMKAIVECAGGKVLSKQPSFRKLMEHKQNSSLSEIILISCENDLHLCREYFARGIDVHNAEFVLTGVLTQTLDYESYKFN
T3 sequence (P53350 326-603): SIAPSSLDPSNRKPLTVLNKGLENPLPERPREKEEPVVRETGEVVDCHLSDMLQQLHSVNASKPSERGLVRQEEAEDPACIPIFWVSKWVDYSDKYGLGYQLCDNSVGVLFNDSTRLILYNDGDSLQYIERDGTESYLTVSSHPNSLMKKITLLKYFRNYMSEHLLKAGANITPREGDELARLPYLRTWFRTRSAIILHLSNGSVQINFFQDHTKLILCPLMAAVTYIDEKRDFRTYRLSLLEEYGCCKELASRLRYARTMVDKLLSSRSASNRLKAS
T2 sequence (P38398 1634-1863): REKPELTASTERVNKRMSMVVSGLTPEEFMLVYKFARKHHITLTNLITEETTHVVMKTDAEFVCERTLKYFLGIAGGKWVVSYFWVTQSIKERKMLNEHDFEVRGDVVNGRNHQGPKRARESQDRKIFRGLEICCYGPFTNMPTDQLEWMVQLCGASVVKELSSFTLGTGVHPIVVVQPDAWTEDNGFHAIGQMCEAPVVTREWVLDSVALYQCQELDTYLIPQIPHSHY
T4 sequence (P53350 326-603): as the sequence (P53350 326-603) above

Molecule: GAAYDISQVFPFAKKK [BRCTtide-7S]
- Kd (N.D.B.) ([1]; PTIP, N.D.B = no detectable binding by ITC, tandem BRCT domain concentration of at least 150 μM): N.D.B.
- Kd (N.D.B.) ([2]; BRCA1, N.D.B = no detectable binding by ITC, tandem BRCT domain concentration of at least 150 μM): N.D.B.

Molecule: PoloBoxtide-7T: mutated version of the optimal peptide, Thr at pT-1 (SEQ ID NO:71) (MAGPMQT[pT]PLNGAYKK)
- peptide binding to Plk-1 PBD by ITC (in words) [3]: abolish Plk1 PBD/peptide binding

Molecule: PoloBoxtide-7G: mutated version of the optimal peptide, Gly at pT-1 (SEQ ID NO:69) (MAGPMQG[pT]PLNGAYKK)
- peptide binding to Plk-1 PBD by ITC (in words) [3]: abolish Plk1 PBD/peptide binding

Molecule: PoloBoxtide-7C: mutated version of the optimal peptide, Cys at pT-1 (SEQ ID NO:70) (MAGPMQC[pT]PLNGAYKK)
- peptide binding to Plk-1 PBD by ITC (in words) [3]: abolish Plk1 PBD/peptide binding

Molecule: CSCC[C@H](NC(=O)[C@@H]1CCCN1C(=O)CNC(=O)[C@H](C)NC(=O)[C@@H](N)CCSC)C(=O)N[C@@H](CCC(N)=O)C(=O)N[C@@H](CO)C(=O)N[C@H](C(=O)N1CCC[C@H]1C(=O)N[C@@H](CC(C)C)C(=O)N[C@@H](CC(N)=O)C(=O)NCC(=O)N[C@@H](C)C(=O)N[C@@H](CCCCN)C(=O)N[C@@H](CCCCN)C(=O)O)[C@@H](C)OP(=O)(O)O [PoloBoxtide-optimal, MAGPMQ-S-pT-P-LNGAKK] (H-MAGPMQS[pT]PLNGAKK-OH)
- pKd [3]: 6.55

Molecule: CC[C@H](C)[C@H](NC(=O)[C@H](CC(=O)O)NC(=O)[C@H](Cc1ccc(O)cc1)NC(=O)[C@H](C)NC(=O)[C@H](C)NC(=O)CN)C(=O)N[C@H](C(=O)N[C@@H](CCC(N)=O)C(=O)N[C@H](C(=O)N[C@@H](Cc1ccccc1)C(=O)N1CCC[C@H]1C(=O)N[C@@H](Cc1ccccc1)C(=O)N[C@@H](C)C(=O)N[C@@H](CCCCN)C(=O)N[C@@H](CCCCN)C(=O)N[C@@H](CCCCN)C(=O)O)C(C)C)[C@@H](C)OP(=O)(O)O [BRCTtide-7pT] (H-GAAYDI[pT]QVFPFAKKK-OH; N-terminus and C-terminus assumed)
- pKd [1]: 4.84

Molecule: CC[C@H](C)[C@H](NC(=O)[C@H](CC(=O)O)NC(=O)[C@H](Cc1ccc(O)cc1)NC(=O)[C@H](C)NC(=O)[C@H](C)NC(=O)CN)C(=O)N[C@@H](COP(=O)(O)O)C(=O)N[C@@H](CCC(N)=O)C(=O)N[C@H](C(=O)N[C@@H](Cc1ccccc1)C(=O)N1CCC[C@H]1C(=O)N[C@@H](Cc1ccccc1)C(=O)N[C@@H](C)C(=O)N[C@@H](CCCCN)C(=O)N[C@@H](CCCCN)C(=O)N[C@@H](CCCCN)C(=O)O)C(C)C [BRCTtide-7pS] (H-GAAYDI[pS]QVFPFAKKK-OH; N-terminus and C-terminus assumed)
- pKd [1]: 6.55
- pKd ([2]; ITC, BRCT domains of BRCA1, text, read-out: dissociation constant): 6.40

Molecule: PoloBoxtide-7A: mutated version of the optimal peptide, Ala at pT-1 (SEQ ID NO:68) (MAGPMQA[pT]PLNGAYKK)
- peptide binding to Plk-1 PBD by ITC (in words) [3]: abolish Plk1 PBD/peptide binding

Molecule: PoloBoxtide-7V: phosphopeptide whose serine at pThr-1 was mutated to valine (SEQ ID NO:67) (MAGPMQV[pT]PLNGAKK)
- effect of peptide pre-incubation on GST-Plk-1 PBD binding of MPM-2 epitopes [4]: had no effect
